Results from US20240166663A1, “NOVEL PYRIMIDINE DERIVATIVE SHOWING INHIBITION EFFECT ON GROWTH OF CANCER CELLS” (ONCOBIX CO., LTD., priority 2021, published 2024).

Molecular target: EXON 20 Insertion(NPG) Ba/F3 Cell (Homo sapiens, UniProt P00533, INS772GNP, cells depend on it)
Assay: Measurement of cancer cell growth inhibitory effect (MTT assay)
Format: cell-based, Murine
Conditions: Ba/F3 cells expressing EGFR with NPG added at D770_N771, 72 hours treatment, read at 595 nm, read-out: EXON 20 Insertion(NPG) Ba/F3 Cell(IC50)
Text: Since there is no commercially available lung cancer cell line with EGFR insertion mutation, a method of inserting 3 to 4 amino acids at each site using site direct mutagenesis in a wild type EGFR expression vector was attempted. In the present invention, first, a vector with three amino acids of NPG added to the D770_N771 site with the highest frequency was used, and Ba/F3 cell line was used for expression of these genes.
When the oncogenic mutant EGFR is expressed, dependence on the mutant EGFR for cell growth and apoptosis occurs without IL-3. Therefore, substances that show effective inhibition of mutant EGFR suppress cell growth and induce apoptosis, so the anticancer effect of cells was analyzed through MTT assay.
1×10^4 cells of the previously constructed stable cells were put into a 96 well plate and incubated overnight, and then the compound of Example was dose dependently treated. After 72 hours, MTT reagent was added, and after 3 hours stop buffer (10% SDS) was added. After 24 hours of incubation, the results were analyzed by reading at 595 nm. […] As a control drug, Mobocertinib was used.

EXON 20 Insertion(NPG) Ba/F3 Cell, sequence (P00533 with tags, fused parts or gaps INS772GNP): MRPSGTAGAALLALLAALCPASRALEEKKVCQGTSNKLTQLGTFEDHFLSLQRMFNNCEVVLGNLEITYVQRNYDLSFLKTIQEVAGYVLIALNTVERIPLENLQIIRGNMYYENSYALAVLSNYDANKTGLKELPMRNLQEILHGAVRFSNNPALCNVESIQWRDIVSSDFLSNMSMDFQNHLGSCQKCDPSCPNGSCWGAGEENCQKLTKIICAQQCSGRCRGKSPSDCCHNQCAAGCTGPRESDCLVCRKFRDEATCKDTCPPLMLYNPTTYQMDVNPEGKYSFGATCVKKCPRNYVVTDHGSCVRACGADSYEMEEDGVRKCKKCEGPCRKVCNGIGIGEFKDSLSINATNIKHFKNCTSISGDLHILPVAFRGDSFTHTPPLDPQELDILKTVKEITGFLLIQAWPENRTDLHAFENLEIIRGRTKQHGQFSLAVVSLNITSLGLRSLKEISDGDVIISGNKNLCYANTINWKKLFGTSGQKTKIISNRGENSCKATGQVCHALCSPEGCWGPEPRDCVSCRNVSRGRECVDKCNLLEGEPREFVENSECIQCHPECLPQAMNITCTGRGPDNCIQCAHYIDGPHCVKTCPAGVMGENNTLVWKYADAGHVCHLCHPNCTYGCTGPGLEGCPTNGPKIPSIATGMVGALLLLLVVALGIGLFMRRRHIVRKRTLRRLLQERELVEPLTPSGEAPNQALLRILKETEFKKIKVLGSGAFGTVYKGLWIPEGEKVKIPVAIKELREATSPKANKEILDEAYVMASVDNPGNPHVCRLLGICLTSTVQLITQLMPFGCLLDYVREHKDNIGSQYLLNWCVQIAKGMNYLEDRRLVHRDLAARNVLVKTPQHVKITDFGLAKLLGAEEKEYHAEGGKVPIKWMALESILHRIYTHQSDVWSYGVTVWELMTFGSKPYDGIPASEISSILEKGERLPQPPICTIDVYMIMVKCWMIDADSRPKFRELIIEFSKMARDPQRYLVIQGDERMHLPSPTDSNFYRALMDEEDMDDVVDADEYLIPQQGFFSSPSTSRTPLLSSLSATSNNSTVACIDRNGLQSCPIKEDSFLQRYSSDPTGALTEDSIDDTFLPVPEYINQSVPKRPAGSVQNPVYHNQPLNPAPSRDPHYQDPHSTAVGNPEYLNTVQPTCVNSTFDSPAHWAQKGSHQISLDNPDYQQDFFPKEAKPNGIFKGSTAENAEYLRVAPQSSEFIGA

Compound | GI50 [nM]
C=CC(=O)Nc1cc(Nc2ncc(C(=O)OC(C)C)c(Nc3ccccc3-n3cccn3)n2)c(OC)cc1N(C)CCN(C)C [Example 17, Isopropyl 4-((2-(1H-pyrazol-1-yl)phenyl)amino)-2-((5-acrylamido-4-((2-(dimethylamino)ethyl)(methyl)amino)-2-methoxyphenyl)amino)pyrimidin-5-carboxylate] | < 25
C=CC(=O)Nc1cc(Nc2cc(Nc3ccccc3-c3ccn(C)n3)ncn2)c(OC)cc1N1CC[C@H](N(C)C)C1 [Example 6, (S)-N-(2-(3-(dimethylamino)pyrrolidin-1-yl)-4-methoxy-5-((6-((2-(1-methyl-1H-pyrazol-3-yl)phenyl)amino)pyrimidin-4-yl)amino)phenyl)acrylamide] | 25 to 50
C=CC(=O)Nc1cc(Nc2ncc(C(=O)OC(C)C)c(Nc3ccccc3-c3ccn(C)n3)n2)c(OC)cc1N1CCOCC1 [Example 24, Isopropyl 2-((5-acrylamido-2-methoxy-4-morpholinophenyl)amino)-4-((2-(1-methyl-1H-pyrazol-3-yl)phenyl)amino)pyrimidin-5-carboxylate] | 25 to 50
C=CC(=O)Nc1cc(Nc2cc(Nc3ccccc3-c3ccn(C)n3)ncn2)c(OC)cc1N1CCOCC1 [Example 5, N-(4-methoxy-5-((6-((2-(1-methyl-1H-pyrazol-3-yl)phenyl)amino)pyrimidin-4-yl)amino)-2-morpholinophenyl)acrylamide] | 25 to 50
C=CC(=O)Nc1cc(Nc2ncc(C(=O)OC(C)C)c(-c3cn(C)c4ccccc34)n2)c(OC)cc1N(C)CCN(C)C [Mobocertinib, reference compound] | 50 to 500
C=CC(=O)Nc1cc(Nc2ncc(C(=O)OC(C)C)c(Nc3ccccc3-c3ccn(C)n3)n2)c(OC)cc1N1CCN(C)CC1 [Example 23, Isopropyl 2-((5-acrylamido-2-methoxy-4-(4-methylpiperizin-l-yl)phenyl)amino)-4-((2-(1-methyl-1H-pyrazol-3-yl)phenyl)amino)pyrimidin-5-carboxylate] | 25 to 50
C=CC(=O)Nc1cc(Nc2cc(Nc3ccccc3-c3ccn(C)n3)ncn2)c(OC2CC2)cc1N(C)CCN(C)C [Example 12, N-(4-cyclopropoxy-2-((2-(dimethylamino)ethyl)(methyl)amino)-5-((6-((2-(1-methyl-1H-pyrazol-3-yl)phenyl)amino)pyrimidin-4-yl)amino)phenyl)acrylamide] | 25 to 50
C=CC(=O)Nc1cc(Nc2cc(Nc3ccccc3-n3cccn3)ncn2)c(OC)cc1N(C)CCN(C)C [Example 2, N-(5-((6-((2-(1H-pyrazol-1-yl)phenyl)amino)pyrimidin-4-yl)amino)-2-((2-(dimethylamino)ethyl)(methyl)amino)-4-methoxyphenyl)acrylamide] | < 25
C=CC(=O)Nc1cc(Nc2ncc(C(=O)OC3CC3)c(Nc3ccccc3-c3ccn(C)n3)n2)c(OC)cc1N(C)CCN(C)C [Example 22, cyclopropyl 2-((5-acrylamido-4-((2-(dimethylamino)ethyl)(methyl)amino)-2-methoxyphenyl)amino)-4-((2-(1-methyl-1H-pyrazol-3-yl)phenyl)amino)pyrimidin-5-carboxylate] | 25 to 50
C=CC(=O)Nc1cc(Nc2ncc(Cl)c(Nc3ccccc3-c3ccn(C)n3)n2)c(OC)cc1N1CCN(C)CC1 [Example 31, N-(5-((5-chloro-4-((2-(1-methyl-1H-pyrazol-3-yl)phenyl)amino)pyrimidin-2-yl)amino)-4-methoxy-2-(4-methylpiperizin-1-yl)phenyl)acrylamide] | 25 to 50
C=CC(=O)Nc1cc(Nc2ncc(Cl)c(Nc3ccccc3-c3ccn(C)n3)n2)c(OC)cc1N1CCOCC1 [Example 32, N-(5-((5-chloro-4-((2-(1-methyl-1H-pyrazol-3-yl)phenyl)amino)pyrimidin-2-yl)amino)-4-methoxy-2-morpholinophenyl)acrylamide] | 25 to 50
C=CC(=O)Nc1cc(Nc2ncc(C(=O)OC)c(Nc3ccccc3-n3cccn3)n2)c(OC)cc1N(C)CCN(C)C [Example 19, methyl 4-((2-(1H-pyrazol-1-yl)phenyl)amino)-2-((5-acrylamido-4-((2-(dimethylamino)ethyl)(methyl)amino)-2-methoxyphenyl)amino)pyrimidin-5-carboxylate] | 25 to 50
C=CC(=O)Nc1cc(Nc2cc(Nc3ccccc3-c3ccn(C)n3)ncn2)c(OC)cc1N(C)[C@H]1CCN(C)C1 [Example 9, (S)-N-(4-methoxy-2-(methyl(1-methylpyrrolidin-3-yl)amino)-5-((6-((2-(1-methyl-1H-pyrazol-3-yl)phenyl)amino)pyrimidin-4-yl)amino)phenyl)acrylamide] | 25 to 50
C=CC(=O)Nc1cc(Nc2ncc(Cl)c(Nc3ccccc3-n3cccn3)n2)c(OC)cc1N(C)CCN(C)C [Example 30, N-(5-((4-((2-(1H-pyrazol-1-yl)phenyl)amino)-5-chloropyrimidin-2-yl)amino)-2-((2-(dimethylamino)ethyl)(methyl)amino)-4-methoxyphenyl)acrylamide] | < 25
C=CC(=O)Nc1cc(Nc2cc(Nc3ccccc3-c3ccn(C)n3)ncn2)c(OC)cc1N(C)CCN(C)C [Example 1, N-(2-((2-(dimethylamino)ethyl)(methyl)amino)-4-methoxy-5-((6-((2-(1-methyl-1H-pyrazol-3-yl)phenyl)amino)pyrimidin-4-yl)amino)phenyl)acrylamide] | < 25
